A short description of series [1]: In vivo study of skin hydration (Corneometer CM 825, legs). Also noted: species or system human. The following applies: versus placebo composition. The protocol:
A comparative in vivo study of the hydrating capacity of the skin of the cosmetic composition in example 22 and its placebo composition, which contained the same ingredients and in the same percentages as the composition of example 22, except the peptide of the invention, Ac-L-Phe-L-Phe-L-Trp-L-Phe-L-His-L-Val-NH2, which was substituted by water.
The measurements of this study were carried out after the test persons were acclimatized for 45 minutes in a bioclimatic room (22° C.; 60% relative humidity) and with the purpose of maintaining the temperature and humidity constant during the measuring. The measurements of skin hydration were carried out on the legs using a Corneometer® CM 825 (Courage & Khazaka, Germany). […]
All the volunteers applied the placebo composition on their right leg and the cosmetic composition from Example 22 on their left legs twice a day for 4 weeks, always applying the placebo composition to the right leg and the composition from example 22 to the left leg. […] Skin measurement values were measured at three different places within the respective testing areas. The recorded values were averaged. […]

The next series has as its system human dermal fibroblasts. The experiment in a line: Photoprotective effectiveness in human dermal fibroblasts (solar simulation lamp, Neutral Red). It counts as cell-based. The following applies: 0.01 μg/mL. The procedure:
The human dermal fibroblasts were maintained in culture for 24 hours in […] or phosphate buffered saline (irradiated control, IC) for 1 hour at 37° C. and humidified air with 5% CO2. The cells were then irradiated with a solar simulation lamp with an energy of 37 J/cm^2 at room temperature for 150 min. A control plate was kept in the dark for the same time at room temperature (non-irradiated control, NIC). After the irradiation period the cell medium was replaced by a fresh one and the cells were incubated for another 24 hours. Cell viability was determined by Neutral Red dye, measuring the optical density at 540 nm in a spectrophotometer, standardizing the values of each simple with regard to the cell viability of the non-irradiated control sample (CVNIC).

The target of another series is T1, PAR-2 (Homo sapiens, UniProt P55085).
T1 construct: endogenous in cells; host or cells: human keratinocytes
T1 sequence (P55085 26-397): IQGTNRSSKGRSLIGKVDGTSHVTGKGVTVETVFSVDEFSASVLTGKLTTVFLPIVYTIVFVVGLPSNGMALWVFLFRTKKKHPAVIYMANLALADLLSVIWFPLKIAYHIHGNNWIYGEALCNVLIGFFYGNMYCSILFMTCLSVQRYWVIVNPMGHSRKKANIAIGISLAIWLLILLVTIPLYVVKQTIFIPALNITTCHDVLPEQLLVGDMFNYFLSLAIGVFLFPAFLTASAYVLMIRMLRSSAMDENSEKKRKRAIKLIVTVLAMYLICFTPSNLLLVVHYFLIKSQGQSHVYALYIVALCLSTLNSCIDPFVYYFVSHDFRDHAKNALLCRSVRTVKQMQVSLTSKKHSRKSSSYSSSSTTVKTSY
As to the kind of experiment: Inhibition of the release of IL-6 induced by PAR-2 activity in human keratinocytes (ELISA). It counts as cell-based. The following applies: 48 h, relative to agonist. The protocol:
Human keratinocytes were cultivated in supplemented Epilife® medium until confluence was achieved. The cells were then separated by treatment with trypsin and seeded at a density of 18,000 cells per well in 96-well plates pre-treated with collagen matrix. After 48 hours of incubation in supplemented Epilife® medium at 37° C. in a humidified atmosphere of 5% CO2 a fresh medium was added with different concentrations of the product of the invention together with PAR2 Agonist I at 50 μM. Cells treated with supplemented Epilife® medium were added as a negative control (Control). The cells were incubated for another 48 hours under the same conditions, after which the supernatants were collected and the amount of IL-6 released was determined using the Human IL-6 ELISA Ready-SET-GOI® commercial kit (eBioscience, Inc.) following the supplier's instructions. The absorbance of each well was determined by reading the spectrophotometer Multiskan Ascent Reader at 450 nm correcting for each determination with its corresponding reading at 570 nm. The relative levels of IL-6 were calculated standardized with regard to the absorbance corresponding to the treatment of the cells with the PAR-2 Agonist I (maximum release of IL-6 in this cell model).

Series [2] concerns human epidermal keratinocytes. As to the kind of experiment: Proliferation of human epidermal keratinocytes in culture (calcein-AM). The format is cell-based. Particulars: 24 h, (T-C)/C. The procedure: Cell proliferation was evaluated by a fluorescence-based cell viability method, in which the live cells are distinguished from the dead cells by the enzymatic conversion of calcein-AM to its fluorescent form.
Human keratinocytes were cultivated in DMEM supplemented with fetal bovine serum (FBS) until confluence was achieved. The cells were then separated using trypsin and were seeded at a density of 100,000 cells per well in 96-well plates. After 24 hours of incubation in DMEM at 37° C. in a humidified atmosphere at 5% CO2 a fresh medium was added with different concentrations of the product of the invention. Cells treated with DMEM as a negative control were used. The cells were incubated for another 24 hours under the same conditions and the medium was substituted by 100 μl of calcein-AM (Molecular Probes) at 0.4 μM diluted in phosphate buffered saline (PBS). After 30 minutes of incubation at 37° C. the fluorescence was measured at excitation 485 nm and emission 530 nm in a plate reader (Genios, Tecan). The total growth percentage was calculated as T/C×100 wherein T is the fluorescence of the wells treated with the peptides of the invention and C the fluorescence of the control wells treated with DMEM.

Series [3] deals with human epidermal keratinocytes. The experiment in a line: Induction of healing in human epidermal keratinocytes in culture (cell-free area closure). The format is cell-based. Particulars: 48 h, (A0-A48)/A0. The protocol:
Human keratinocytes were cultivated in DMEM supplemented with fetal bovine serum (FBS) until confluence was achieved. The cells were then separated using trypsin and were seeded at a density of 50,000 cells per well in 48-well plates. After 48 hours of incubation in DMEM at 37° C. in a humidified atmosphere at 5% CO2 a cut in the cultivation with a pipette point to create an area without cells simulating an injury and photographs were taken of said area with a Zeiss Axiovert 40 CFL microscope equipped with a AxioCam MRc5 camera, calculating the area of the zone without cells using the (A0) equipment software. A fresh medium was then added with different concentrations of the product of the invention. Cells treated with DMEM as a negative control were used, and cells treated with DMEM and FBS as the positive healing control. The cells were incubated for another 48 hours under the same conditions to enable cell migration in the injury area, after which photographs were taken of the injury area once again and the corresponding areas of the zones without cells were calculated (A48).
The healing percentage was calculated as the ratio of the reduction to the area without cells after 48 hours and the area without cells before incubation with the peptide [(A0-A48)/A0].

The test system of series [4] is sensitization of TRPV1 mediated by PAR-2 activity. As to the kind of experiment: Inhibition of sensitization of TRPV1 mediated by PAR-2 activity in sensory neurons in culture; CGRP levels (EIA). The format is cell-based. The following applies: rat DRG neurons, 15 min, PAR-2 agonist I 30 μM then capsaicin 1 μM.
Protocol: Thus, the effectiveness and potential of the peptides in the inhibition of α-CGRP release due to TRPV-1 sensitization mediated by PAR-2 activity in culture of rat DRG neurons was evaluated.
DRG neurons in culture were incubated with the different treatments at the indicated concentrations in buffer medium HBSS (Hank's Balanced salt solution) for 15 min at 37° C., after which the neurons were sensitized by treatment with the PAR-2 agonist I at 30 μM for 15 min at 37° C. Lastly α-CGRP release was induced by treatment with capsaicin 1 μM for 5 min at 37° C. The supernatants were collected and the amount of α-CGRP released was determined by enzyme immunoassay using the Rat CGRP EIA kit (SPI-Bio, Societe de Pharmacologie et d'Immunologie-BIO, France) following the supplier's instructions. The intensity of the color, determined by reading the absorbency at 405 nm, is proportional to the amount of CGRP released. The relative values of CGRP released were determined by double standardization with regard to the basal release of CGRP of the negative control (cells treated with HBSS) and the maximum releases of CGRP induced by the treatment with the cells with the PAR-2 agonist I and capsaicin.
The test system of series [5] is Reconstructed human epidermis (RHE). The experiment in a line: Anti-sensitizing potential: IL-8 expression in reconstructed human epidermis (RHE), ELISA. It counts as cell-based. The following applies: versus placebo composition; allergens cinnamal and farnesol. The text has this:
Cosmetic creams containing parfums normally show allergic reactions due to some allergenic components like cinnamal or farnesol. The purpose of this experiment was to evaluate the anti-sensitizing potential of a cosmetic cream of Example 23 containing cinnamal, farnesol and the peptide Ac-L-Phe-L-Phe-L-Trp-L-Phe-L-His-L-Val-NH2, compared with a placebo cream (composition of Example 23 without the ingredients of phase C). In order to determine the anti-sensitizing potential the level of interleukin-8, IL-8 was measured for both creams in RHE tissues after 24 h of cream application.
Commercial RHE tissues (SkinEthic, Lyon, RHE/S/17) (0.5 cm^2) were treated in triplicate with 15 μg of the composition of Example 23 and the placebo composition over the surface of the tissue. After 24 hours of incubation in growth medium at 37° C. in a humidified atmosphere at 5% CO2, the IL-8 expression in the treated RHE tissues was determined using the ELISA Interleukin detection kit (Invitrogen) following the supplier's instructions. The absorbance was determined by reading the spectrophotometer Synergy MX, Biotek, at 450 nm.

The mark [6] stands for this setting: peptide 0.1 mg/mL with PAR2 Agonist I 50 μM.
Where [7] appears, read: peptide 0.5 mg/mL with PAR2 Agonist I 50 μM.

Values joined by “and” are separate entries in the source; they are usually repeats but may differ in a detail not shown here. Equal values may be shown once.

In the case of “Ac-FFWFHV-NH2 [Ac-L-Phe-L-Phe-L-Trp-L-Phe-L-His-L-Val-NH2]”, in series [1], the “skin hydration (in words)” value is reported as “improves the skin's hydration in vivo”. The “% PHOTOPROTECTIVE EFFECTIVENESS” value in the series with human dermal fibroblasts ((CVi-CVIC)/CVIC versus irradiated control) is 105.9%. In the series on human dermal fibroblasts (irradiated 37 J/cm^2, 150 min, relative to non-irradiated control), the “CELL VIABILITY (%)” value is recorded as 37.1%. Moreover, the figures for the “% IL-6” value at PAR-2 (setting [6]) and at PAR-2 (setting [7]) were 61.8% and 30.4%, respectively. In addition, the “% Stimulation of proliferation” value in series [2] (10 μg/mL) was 21.3%; in series [2] (25 μg/mL), 23% and 23.2%. Further, the “% Healing” value in series [3] (25 μg/mL) was 40.0%; in series [3] (0.5 mg/mL), 45% and 44.8%. The “% CGRP” value in series [4] (peptide 25 μg/mL) stood at 58.9%; in series [4] (peptide 0.5 mg/mL), 17.7%. The “IL-8 expression / release of cytokines (in words)” value in series [5] is given as “highly counteract the release of cytokines induced by cosmetic allergens”.

As for “Ac-FFWDIV-NH2 [Ac-L-Phe-L-Phe-L-Trp-L-Asp-L-Ile-L-Val-NH2]”, the “% IL-6” value turned out to be 36.2% on PAR-2 (setting [6]) and 11.5% at PAR-2 (setting [7]). In addition, the “% CGRP” value is 78.7% in series [4] (peptide 25 μg/mL) and 20.3% in series [4] (peptide 0.5 mg/mL).

On to “Ac-FMWFHV-NH2 [Ac-L-Phe-L-Met-L-Trp-L-Phe-L-His-L-Val-NH2]”, for which the entries for the “% IL-6” value at PAR-2 (setting [6]) and on PAR-2 (setting [7]) were 84.6% and 42.3%, respectively. For the same substance, the “% CGRP” value in series [4] (peptide 25 μg/mL) is given as 70.1%; in series [4] (peptide 0.5 mg/mL), 20.2%.

Values taken from patent US9333152B2, “Peptides which inhibit activated receptors and their use in cosmetic or pharmaceutical compositions” (LIPOTEC, S.A., priority 2011, dated 2016).
